In series [1] the test system is Sarcoma-180. The series is described as follows: Antitumor activity: inhibition of solid Sarcoma-180 tumor implanted subcutaneously in ICR mice. Particulars: day 22, i.p. 10 times every other day, mg/kg: 5-Fu 15, MP 10, 5-CAU 10, Phe+5-Fu 15+15, Phe+MP 15+10, Phe+5-CAU 15+10, Phe-5-Fu 30, Phe'-5-Fu 30, Phe-MP 20, Phe-5-CAU 20; for Average tumor weight ± SD: control 3.438 ± 1.481, in g (unit assumed). In kind it is in vivo. As for the experimental part: The concentration of the solid tumor cells (Sarcoma-180) was aseptically adjusted to 1×10^6 /0.2 ml with a medium [prepared by filtering 10% bovine fetal serum-added MEM (Eagles' Minimum Essential Medium) for sterilization, and stored at 4° C.] and subcutaneously implanted at the axillas of ICR mice (5 weeks old; females; one group consisting of 10 mice). From the next day, the samples (0.15% physiological saline solution) shown in Table 1 were administered intraperitoneally 10 times every other day. On the 22nd day, the tumors were excised and the inhibition rate (IR) was obtained from the weight of the tumors. The inhibition rate (IR) (%) was calculated by the following formula: […]
wherein T is the average tumor weight of the treated group, and C is the average tumor weight of the control group.

Series [2] relates to Wistar rats. In words: Acute toxicity, oral forced administration to Wistar rats. Particulars: 250 mg/kg by forced administration, fasted male Wistar rats, observed until 14 days. In kind it is in vivo. As for the experimental part: (1) The conditions in the feeding chamber were arranged to a temperature of 23°±1° C., a relative humidity of 55±5%, a ventilation frequency of 20 times per hour, and a lighting term of 12 hours. Wistar rats (male; five-week old;. 120 to 141 g) were used. The rats were placed in metallic cages having wire walls in the front and bottom thereof, at the rate of 5 rats per one cage. They were allowed food (MF: Oriental Yeast) and water ad libitum.
The conjugate (I-1) of the present invention obtained from Example 1(5) was suspended in a 1.5% methylcellulose aqueous solution. The suspension was administered by force. The amount of the administration was 1 ml per 100 g body weight of animals forced to fast for 18 hours, that is, 250 mg/kg was administered. Symptoms of addiction and survival were observed hourly up to 8 hours after the administration, then twice a day until 14 days after administration.

Series [3] deals with pyruvate kinase M2-type isoenzyme. Particulars: low concentration of L-phenylalanine; cited from earlier work.

In the case of `N[C@@H](Cc1ccccc1)C(=O)NC(C(=O)O)n1cc(F)c(=O)[nH]c1=O` (mixture of isomers) [Phe-5-Fu, L-phenylalanyl-2-(5-fluorouracil-1-yl)-D,L-glycine], in series [1], the “IR (inhibition rate from tumor weight)” value is listed as 77.6% and the “Average tumor weight ± SD” value was determined as 0.770 ± 0.397. In addition, the “Survival / death after administration” value in series [2] is “No death was observed”.
Take `CCOC(=O)C(NC(=O)[C@@H](N)Cc1ccccc1)N[C@@H](Cc1ccc(N(CCCl)CCCl)cc1)C(=O)OC` (stereo partly drawn) [Phe-MP, L-phenylalanyl-2-[p-(bis(2-chloroethyl)amino)-L-phenylalaninemethylester-2-yl]-D,L-glycineethylester]: in series [1], the “IR (inhibition rate from tumor weight)” value was 72.6% and the “Average tumor weight ± SD” value was determined as 0.943 ± 0.587.
On the same counts, the results for `O=c1[nH]cc(F)c(=O)[nH]1` [5-Fu, 5-fluorouracil, reference compound] are 57.3% and 1.467 ± 1.437.
On the same counts, the results for `N[C@@H](Cc1ccccc1)C(=O)NC(C(=O)O)n1cc(N(CCCl)CCCl)c(=O)[nH]c1=O` (mixture of isomers) [Phe-5-CAU, L-phenylalanyl-2-[5-(bis(2-chloroethyl)amino)uracil-1-yl]-D,L-glycine] are 75.2% and 0.854 ± 0.664.
With `N[C@@H](Cc1ccc(N(CCCl)CCCl)cc1)C(=O)O` [MP, Melphalan, reference compound], in series [1], the “IR (inhibition rate from tumor weight)” value came out at 60.5% and the “Average tumor weight ± SD” value was 1.358 ± 1.369.
With `O=c1[nH]cc(N(CCCl)CCCl)c(=O)[nH]1` [5-CAU, 5-[bis(2-chloroethyl)amino]uracil, reference compound], in series [1], the “IR (inhibition rate from tumor weight)” value was 54.2% and the “Average tumor weight ± SD” value worked out at 1.574 ± 1.285.
On the same counts, the results for `CCOC(=O)C(NC(=O)[C@@H](N)Cc1ccccc1)n1cc(F)c(=O)[nH]c1=O` (mixture of isomers) [Phe'-5-Fu, L-phenylalanyl-2-(5-fluorouracil-1-yl)-D,L-glycineethylester] are 76.5% and 0.808 ± 0.389.
On to `N[C@@H](Cc1ccccc1)C(=O)O` [L-phenylalanine], for which the “inhibition of M2-type isoenzyme of pyruvate kinase (in words)” value in series [3] is recorded as “selectively inhibited”.

The values above are taken from US5411964A, “Phenylalanine-glycine compounds having anti-tumor activity, process for preparation thereof, and pharmaceutical composition containing said compounds” (Kureha Chemical Industry Co., Ltd., priority 1992, dated 1995).
